Each structure is given as a SMILES string. Counter-ions that a name gives are not always drawn. Like-named read-outs stand apart in the source and are kept apart here. Some results are limits rather than exact numbers.

For 14 molecules, IC50 results are on record in patent US20220273659A1, “HETEROCYCLIC COMPOUNDS AS KINASE INHIBITORS” (NUVATION BIO INC., priority 2019, published 2022).

In assay [1] the test system is DU4475 breast carcinoma cells. As to the kind of experiment: Cancer cell proliferation assay, single agent (cell viability). The assay is classed as cell-based. Conditions: Homo sapiens, DU-4475; Table 4; Rb negative; treatment 144 Hr with medium change at 72 Hr; Cell Titer-Glo or resazurin. The method in brief:
(§1)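 Viability read by resazurin or CellTiter-Glo after 24 h treatment (BT-549) or 144 h with a 72 h medium change (MCF-7, DU4475). Compounds tested at 7–9 concentrations, e.g. 1.1 nM–10 μM, added the day after seeding; IC50 by nonlinear sigmoidal regression.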
A general note: ATP-based viability assays read luminescence as a measure of living cells.

For assay [2], the target named is T1, CDK1 (cyclin B) (Homo sapiens, UniProt P06493).
T1 construct: purchased Invitrogen Life Technologies (assay service)
T1 sequence (P06493 whole entry): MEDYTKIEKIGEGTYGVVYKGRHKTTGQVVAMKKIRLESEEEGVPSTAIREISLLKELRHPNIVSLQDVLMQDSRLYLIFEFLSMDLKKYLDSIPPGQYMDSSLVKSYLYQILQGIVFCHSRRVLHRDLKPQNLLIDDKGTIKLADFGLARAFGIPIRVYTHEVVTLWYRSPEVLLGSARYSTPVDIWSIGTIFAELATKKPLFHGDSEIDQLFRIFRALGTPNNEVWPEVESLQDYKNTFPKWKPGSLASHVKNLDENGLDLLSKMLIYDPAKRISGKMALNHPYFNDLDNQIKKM
T1 sequence (P14635 whole entry partner): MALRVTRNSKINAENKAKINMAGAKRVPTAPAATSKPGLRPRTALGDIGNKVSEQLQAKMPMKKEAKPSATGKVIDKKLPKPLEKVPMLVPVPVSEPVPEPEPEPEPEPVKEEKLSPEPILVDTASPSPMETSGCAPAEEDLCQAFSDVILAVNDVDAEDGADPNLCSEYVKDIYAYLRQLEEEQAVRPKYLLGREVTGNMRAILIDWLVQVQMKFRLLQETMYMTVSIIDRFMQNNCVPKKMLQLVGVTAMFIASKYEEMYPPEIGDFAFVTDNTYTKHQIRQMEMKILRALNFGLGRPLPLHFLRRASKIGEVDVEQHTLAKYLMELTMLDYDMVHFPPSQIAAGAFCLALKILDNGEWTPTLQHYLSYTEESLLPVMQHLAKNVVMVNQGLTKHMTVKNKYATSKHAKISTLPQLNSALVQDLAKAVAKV
As to the kind of experiment: Z'-LYTE kinase assay. Format: biochemical. How it is done:
The plates were shaken for 30 seconds, and incubated for 60 minutes at room temperature. […] The plates were read on fluorescence plate reader with Dual emission at 445 nm and 520 nm.
The following equations were used for Z′-LYTE™ Screening Assay Data Analysis.

Assay [3] concerns the target T2, PI3Kδ kinase (Homo sapiens, UniProt O00329).
T2 construct: purchased Reaction Biology Corporation (assay service)
As to the kind of experiment: PI3Kδ kinase assay (ADP-Glo, Reaction Biology). Format: biochemical. In short, it runs like this:
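Kinase in Tris-HCl 40 mM pH 7.5, MgCl2 20 mM, orthovanadate 3 mM, DTT 2 mM, 0.05% CHAPS, 1% DMSO, preincubated 10 min at room temperature with compound (about 0.5 nM–100 μM). ATP started a 30-min reaction at 30 °C. ADP-Glo luminescence converted to μM ADP via standard curve; IC50 from nonlinear regression.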

Assay [4] has as its target T3, CDK2 (cyclin A) (Homo sapiens, UniProt P24941).
T3 construct: purchased Invitrogen Life Technologies (assay service)
As to the kind of experiment: Z'-LYTE kinase assay. Format: biochemical. The method in brief: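 FRET-based Z′-LYTE read-out using 1.22–10.3 ng CDK2/cyclin A with Ser/Thr 12 peptide (2 μM in the 2× mix) and ATP (31 μM as the 4× solution), in HEPES pH 7.5, MgCl2, EGTA and BRIJ-35, for 60 min at room temperature. After 1 h of development, the 445/520 nm emission was read, and percent inhibition was fitted to a four-parameter logistic curve for IC50.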

The target of assay [5] is T4, CDK6 (Homo sapiens, UniProt Q00534).
T4 construct: purchased Invitrogen PR8422B
T4 sequence (Q00534 whole entry): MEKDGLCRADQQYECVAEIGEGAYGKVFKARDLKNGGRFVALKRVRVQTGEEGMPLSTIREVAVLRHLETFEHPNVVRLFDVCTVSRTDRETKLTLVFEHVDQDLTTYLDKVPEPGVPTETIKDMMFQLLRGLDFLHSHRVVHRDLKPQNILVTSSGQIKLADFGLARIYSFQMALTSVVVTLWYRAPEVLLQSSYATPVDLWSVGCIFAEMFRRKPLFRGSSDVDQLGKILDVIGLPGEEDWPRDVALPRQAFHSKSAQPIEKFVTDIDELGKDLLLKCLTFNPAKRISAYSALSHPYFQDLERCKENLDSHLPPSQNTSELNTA
T4 sequence (P24385 whole entry partner): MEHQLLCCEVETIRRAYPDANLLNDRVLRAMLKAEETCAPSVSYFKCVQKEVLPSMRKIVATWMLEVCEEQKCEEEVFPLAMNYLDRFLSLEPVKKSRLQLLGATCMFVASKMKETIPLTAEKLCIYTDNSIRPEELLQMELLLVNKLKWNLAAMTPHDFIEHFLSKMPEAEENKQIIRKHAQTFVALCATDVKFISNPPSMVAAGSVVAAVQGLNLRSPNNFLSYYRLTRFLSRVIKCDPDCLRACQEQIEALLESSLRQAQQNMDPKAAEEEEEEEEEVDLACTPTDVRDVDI
As to the kind of experiment: In vitro kinase inhibition IC50, luminescence (ADP Glo), retinoblastoma substrate. Particulars: read-out: CDK6/D1 IC50. The assay is classed as biochemical. The method in brief: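 IC50 derived by four-parameter logistic fit of percent inhibition, read as ADP-Glo luminescence. Reactions: 5 nM CDK6, 1 μM retinoblastoma, 25 μM ATP, test compound 0.1–200 nM final, 2 h at room temperature.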
For orientation: In ADP-Glo the light output rises with the ADP produced.

Assay [6] has as its target T5, CDK4 (Homo sapiens, UniProt P11802).
T5 construct: purchased Invitrogen PR8064A
Described as above. The assay is classed as biochemical. Conditions: read-out: CDK4/D1 IC50. The method in brief: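 Inhibition of CDK4 was quantified by ADP Glo luminescence with retinoblastoma as substrate. Reactions held 5 nM kinase, 1 μM retinoblastoma and 25 μM ATP and ran 2H at room temperature. A Synergy Neo reader took signals 15 min and 45 min after detection reagent, and percent inhibition was fitted to a four-parameter logistic model in XLfit to obtain IC50.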

The test system of assay [7] is MCF-7 breast adenocarcinoma cells. As to the kind of experiment: Cancer cell proliferation assay, single agent (cell viability). The assay is classed as cell-based. Particulars: Homo sapiens, MCF7, Table 4; Rb positive; treatment 144 Hr with medium change at 72 Hr; Cell Titer-Glo or resazurin. The method in brief:
as §1

The target of assay [8] is T6, FMS kinase (Homo sapiens, UniProt P07333).
T6 construct: purchased Invitrogen (Life Technologies)
T6 sequence (P07333 20-972): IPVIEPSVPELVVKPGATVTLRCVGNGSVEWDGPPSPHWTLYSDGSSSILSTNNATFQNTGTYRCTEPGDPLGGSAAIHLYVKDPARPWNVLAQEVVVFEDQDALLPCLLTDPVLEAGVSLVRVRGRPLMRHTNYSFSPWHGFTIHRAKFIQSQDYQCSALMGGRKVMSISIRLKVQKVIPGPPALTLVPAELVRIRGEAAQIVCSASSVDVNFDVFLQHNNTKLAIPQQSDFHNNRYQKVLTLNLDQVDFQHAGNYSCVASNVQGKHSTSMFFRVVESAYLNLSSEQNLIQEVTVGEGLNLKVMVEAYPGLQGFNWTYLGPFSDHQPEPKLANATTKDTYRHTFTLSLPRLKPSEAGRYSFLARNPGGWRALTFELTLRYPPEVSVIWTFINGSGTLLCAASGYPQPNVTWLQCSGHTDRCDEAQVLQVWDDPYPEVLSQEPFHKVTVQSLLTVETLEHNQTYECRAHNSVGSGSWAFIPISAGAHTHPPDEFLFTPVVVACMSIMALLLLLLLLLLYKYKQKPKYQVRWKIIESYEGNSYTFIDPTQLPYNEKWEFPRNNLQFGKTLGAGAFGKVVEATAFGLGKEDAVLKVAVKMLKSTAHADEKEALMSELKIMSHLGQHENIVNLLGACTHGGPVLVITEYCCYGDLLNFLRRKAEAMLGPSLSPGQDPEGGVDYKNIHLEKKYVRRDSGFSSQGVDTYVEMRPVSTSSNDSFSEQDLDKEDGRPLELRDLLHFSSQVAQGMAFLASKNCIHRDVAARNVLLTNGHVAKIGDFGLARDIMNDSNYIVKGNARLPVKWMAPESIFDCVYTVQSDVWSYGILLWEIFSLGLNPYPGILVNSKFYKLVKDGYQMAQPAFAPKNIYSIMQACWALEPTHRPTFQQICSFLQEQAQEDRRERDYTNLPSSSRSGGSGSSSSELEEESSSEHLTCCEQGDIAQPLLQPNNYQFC
As to the kind of experiment: LanthaScreen Eu Kinase Binding Assay (ATP, fluorescent-PolyGT substrate). Format: biochemical. The method in brief: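 TR-FRET read (ex 340, em 495 and 520 nm) after EDTA/Tb-labelled antibody stop; IC50 by four-parameter logistic fit of percent inhibition. Reaction: 1.25 nM FMS, 10 min compound preincubation (3-fold series), then 1 h at room temperature with 10 μM ATP and 200 nM fluorescent PolyGT.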
In general terms: Time-resolved FRET reads energy transfer from a long-lived donor to a nearby acceptor.

T2 sequence (O00329 whole entry): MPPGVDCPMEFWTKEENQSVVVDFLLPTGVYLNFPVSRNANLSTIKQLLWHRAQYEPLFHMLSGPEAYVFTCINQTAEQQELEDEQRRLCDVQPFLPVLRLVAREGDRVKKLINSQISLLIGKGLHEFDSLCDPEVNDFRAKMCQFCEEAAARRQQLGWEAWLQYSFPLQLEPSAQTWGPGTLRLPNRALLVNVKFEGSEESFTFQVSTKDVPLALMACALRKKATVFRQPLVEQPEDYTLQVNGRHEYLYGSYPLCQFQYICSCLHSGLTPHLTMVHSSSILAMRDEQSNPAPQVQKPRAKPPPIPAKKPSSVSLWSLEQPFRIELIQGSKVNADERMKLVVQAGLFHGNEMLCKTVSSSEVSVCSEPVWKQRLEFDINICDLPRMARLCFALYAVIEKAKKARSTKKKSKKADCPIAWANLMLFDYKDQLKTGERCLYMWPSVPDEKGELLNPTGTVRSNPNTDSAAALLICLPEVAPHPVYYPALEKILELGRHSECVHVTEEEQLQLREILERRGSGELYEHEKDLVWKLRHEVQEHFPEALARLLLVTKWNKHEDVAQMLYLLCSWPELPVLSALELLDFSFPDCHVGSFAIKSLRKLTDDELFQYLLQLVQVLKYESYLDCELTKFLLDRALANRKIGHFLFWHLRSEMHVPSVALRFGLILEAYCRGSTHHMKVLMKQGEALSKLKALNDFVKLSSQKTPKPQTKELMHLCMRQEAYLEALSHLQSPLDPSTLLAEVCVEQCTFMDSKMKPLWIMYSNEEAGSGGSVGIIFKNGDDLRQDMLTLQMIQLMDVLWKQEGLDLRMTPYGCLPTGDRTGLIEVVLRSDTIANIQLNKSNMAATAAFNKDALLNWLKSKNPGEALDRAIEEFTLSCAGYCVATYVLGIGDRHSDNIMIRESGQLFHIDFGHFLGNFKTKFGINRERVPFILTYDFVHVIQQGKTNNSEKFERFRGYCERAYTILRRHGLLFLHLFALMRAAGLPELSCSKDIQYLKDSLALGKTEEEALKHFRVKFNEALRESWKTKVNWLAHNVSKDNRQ
T2 sequence (P27986 whole entry partner): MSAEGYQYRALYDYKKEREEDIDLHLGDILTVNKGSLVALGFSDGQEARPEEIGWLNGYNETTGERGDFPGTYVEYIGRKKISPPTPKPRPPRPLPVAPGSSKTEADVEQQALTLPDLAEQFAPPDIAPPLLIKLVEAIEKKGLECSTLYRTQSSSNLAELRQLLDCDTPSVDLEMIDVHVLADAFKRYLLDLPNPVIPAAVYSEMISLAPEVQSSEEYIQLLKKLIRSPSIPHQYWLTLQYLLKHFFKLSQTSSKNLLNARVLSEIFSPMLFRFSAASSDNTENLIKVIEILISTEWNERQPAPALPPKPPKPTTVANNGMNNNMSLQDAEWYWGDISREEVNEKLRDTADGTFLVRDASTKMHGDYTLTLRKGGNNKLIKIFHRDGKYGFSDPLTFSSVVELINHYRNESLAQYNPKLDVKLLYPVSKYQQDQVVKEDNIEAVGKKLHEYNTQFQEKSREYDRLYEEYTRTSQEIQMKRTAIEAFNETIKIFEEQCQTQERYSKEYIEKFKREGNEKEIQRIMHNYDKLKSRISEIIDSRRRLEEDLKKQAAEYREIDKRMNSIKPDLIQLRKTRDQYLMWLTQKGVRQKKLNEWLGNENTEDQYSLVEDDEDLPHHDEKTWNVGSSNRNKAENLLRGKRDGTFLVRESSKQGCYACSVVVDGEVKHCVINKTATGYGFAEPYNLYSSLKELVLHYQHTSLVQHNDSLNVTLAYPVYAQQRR
T5 sequence (P11802 whole entry): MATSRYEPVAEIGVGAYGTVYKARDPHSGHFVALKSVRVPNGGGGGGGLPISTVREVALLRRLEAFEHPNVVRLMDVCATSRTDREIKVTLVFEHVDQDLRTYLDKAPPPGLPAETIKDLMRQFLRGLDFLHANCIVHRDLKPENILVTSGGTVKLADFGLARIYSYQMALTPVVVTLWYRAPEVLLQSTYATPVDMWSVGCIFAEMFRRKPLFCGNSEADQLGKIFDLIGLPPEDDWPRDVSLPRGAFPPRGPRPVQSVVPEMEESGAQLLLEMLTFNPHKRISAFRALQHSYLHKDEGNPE
T5 sequence (P24385 whole entry partner): as the sequence (P24385 whole entry partner) above

In the case of `N#Cc1cc2cnc(Nc3ccc4c(c3)CCNC4)nc2n(C2CCC2)c1=O` [Compound No. 91, 8-cyclobutyl-7-oxo-2-((1,2,3,4-tetrahydroisoquinolin-6-yl)amino)-7,8-dihydropyrido[2,3-d]pyrimidine-6-carbonitrile hydrochloride], the IC50 was 510 nM in assay [1]; 913 nM in assay [2] (read-out: CDK1/B IC50); 705 nM in assay [3]; 79 nM in assay [4]; 28 nM in assay [5]; 84 nM in assay [6].
On to `CN(C)C1CCc2ccc(Nc3ncc4cc(C#N)c(=O)n(C5CCCC5)c4n3)cc2C1` (centres unmarked) [Compound No. 48, 8-cyclopentyl-2-((7-(dimethylamino)-5,6,7,8-tetrahydronaphthalen-2-yl)amino)-7-oxo-7,8-dihydropyrido[2,3-d]pyrimidine-6-carbonitrile], for which the IC50 in assay [7] came to 945 nM; in assay [2] (read-out: CDK1/B IC50), 488 nM; in assay [8] it was 3 nM; in assay [3], 945 nM; in assay [4], 140 nM; in assay [5] it was 6 nM. For the same molecule, the IC50 in assay [6] was 14 nM.
For the molecule `CS(=O)(=O)N1CCC(Nc2ncc3cc(C#N)c(=O)n(C4CCC4)c3n2)CC1` [Compound No. 368, 8-cyclobutyl-2-((1-(methylsulfonyl)piperidin-4-yl)amino)-7-oxo-7,8-dihydropyrido [2,3-d] pyrimidine-6-carbonitrile], the IC50 in assay [1] was found to be 1390 nM; in assay [7], 405 nM; in assay [2], 331 nM; in assay [3], 1980 nM; in assay [4], 28 nM; in assay [5], 3.4 nM. The IC50 in assay [6] was 34 nM.
`N#Cc1cc2ccc(Nc3ccc(N4CCNCC4)cc3)nc2n(C2CCCC2)c1=O` [Compound No. 94, 1-cyclopentyl-2-oxo-7-((4-(piperazin-1-yl)phenyl)amino)-1,2-dihydro-1,8-naphthyridine-3-carbonitrile]: the IC50 in assay [1] was 485 nM; in assay [7] it was 1940 nM; in assay [2] (read-out: CDK1/B IC50), greater than 5000 nM; in assay [3], greater than 50000 nM; in assay [4] it was greater than 5000 nM; in assay [5] it was greater than 200 nM. Besides, the IC50 in assay [6] is greater than 200 nM.
Consider `CN1CCN(c2ccc(Nc3cc4c(cn3)cc(C#N)c(=O)n4C3CCCC3)cc2)CC1` [Compound No. 87, 1-cyclopentyl-7-((4-(4-methylpiperazin-1-yl)phenyl)amino)-2-oxo-1,2-dihydro-1,6-naphthyridine-3-carbonitrile], for which the IC50 in assay [1] was 6700 nM; in assay [2] (read-out: CDK1/B IC50), greater than 5000 nM; in assay [3], 549 nM; in assay [4], greater than 3640 nM; in assay [5], 21 nM; in assay [6], 58 nM.
Consider `N#Cc1cc2cnc(Nc3ccc4c(c3)CNCC4)cc2n(C2CCCC2)c1=O` [Compound No. 95, 1-cyclopentyl-2-oxo-7-((1,2,3,4-tetrahydroisoquinolin-7-yl)amino)-1,2-dihydro-1,6-naphthyridine-3-carbonitrile], for which the IC50 is 1500 nM in assay [1]; 3580 nM in assay [7]; greater than 5000 nM in assay [2] (read-out: CDK1/B IC50); 4700 nM in assay [3]; 2040 nM in assay [4]; greater than 184 nM in assay [5]. Also, in assay [6], the IC50 is greater than 200 nM.
Turning to `CN1CCC(c2ccc(Nc3cc4c(cn3)cc(C#N)c(=O)n4C3CCCC3)cc2)CC1` [Compound No. 89, 1-cyclopentyl-7-((4-(1-methylpiperidin-4-yl)phenyl)amino)-2-oxo-1,2-dihydro-1,6-naphthyridine-3-carbonitrile], the IC50 is 5200 nM in assay [1]; greater than 5000 nM in assay [2] (read-out: CDK1/B IC50); 751 nM in assay [3]; 874 nM in assay [4]; 10 nM in assay [5]; 20 nM in assay [6].
Turning to `N#Cc1cc2cnc(Nc3ccc4c(c3)C(=O)NCC4)nc2n(C2CCCC2)c1=O` [Compound No. 6, 8-cyclopentyl-7-oxo-2-((1-oxo-1,2,3,4-tetrahydroisoquinolin-7-yl)amino)-7,8-dihydropyrido[2,3-d]pyrimidine-6-carbonitrile], the IC50 was 1160 nM in assay [7]; greater than 4650 nM in assay [2] (read-out: CDK1/B IC50); less than 1 nM in assay [8]; 163 nM in assay [3]; 873 nM in assay [4]; 2 nM in assay [5]. Further, the IC50 in assay [6] was determined as 8 nM.
As for `CC1(C)NCCc2cc(Nc3ncc4cc(C#N)c(=O)n(C5CCCC5)c4n3)ccc21` [Compound No. 92, 8-cyclopentyl-2-((1,1-dimethyl-1,2,3,4-tetrahydroisoquinolin-6-yl)amino)-7-oxo-7,8-dihydropyrido[2,3-d]pyrimidine-6-carbonitrile], the IC50 was 420 nM in assay [1]; 118 nM in assay [2] (read-out: CDK1/B IC50); 725 nM in assay [3]; 16 nM in assay [4]; 6 nM in assay [5]; 15 nM in assay [6].
Consider `N#Cc1cc2cnc(Nc3ccc(N4CCNCC4)cc3)cc2n(C2CCCC2)c1=O` [Compound No. 88, 1-cyclopentyl-2-oxo-7-((4-(piperazin-4-yl)phenyl)amino)-1,2-dihydro-1,6-naphthyridine-3-carbonitrile], for which the IC50 in assay [1] is 1560 nM; in assay [2] (read-out: CDK1/B IC50) it was greater than 5000 nM; in assay [3] it was 905 nM; in assay [4], 1100 nM; in assay [5] it was 12 nM; in assay [6], 34 nM.
In the case of `CS(=O)(=O)N1CCC(Nc2ncc3cc(C#N)c(=O)n(C4COCC4O)c3n2)CC1` (centres unmarked) [Compound No. 350, 8-(4-hydroxytetrahydrofuran-3-yl)-2-((1-(methylsulfonyl)piperidin-4-yl)amino)-7-oxo-7,8-dihydropyrido[2,3-d]pyrimidine-6-carbonitrile], the IC50 was greater than 30000 nM in assay [1]; greater than 10000 nM in assay [7]; 2270 nM in assay [2] (read-out: CDK1/B IC50); greater than 5000 nM in assay [8]; 235 nM in assay [4]; greater than 200 nM in assay [5]. The IC50 in assay [6] is greater than 200 nM.
`N#Cc1cc2cnc(Nc3ccc4c(c3)CCNC4)cc2n(C2CCCC2)c1=O` [Compound No. 90, 1-cyclopentyl-2-oxo-7-((1,2,3,4-tetrahydroisoquinolin-6-yl)amino)-1,2-dihydro-1,6-naphthyridine-3-carbonitrile]: the IC50 in assay [1] was 4900 nM; in assay [2] (read-out: CDK1/B IC50), greater than 5000 nM; in assay [3] it was 4940 nM; in assay [4], 619 nM; in assay [5], 115 nM; in assay [6] it was 132 nM.
Consider `N#Cc1cc2cnc(NC3CCN(S(=O)(=O)C(F)F)CC3)nc2n(C2CCCC2)c1=O` [Compound No. 359, 8-cyclopentyl-2-((1-((difluoromethyl)sulfonyl)piperidin-4-yl)amino)-7-oxo-7,8-dihydropyrido[2,3-d]pyrimidine-6-carbonitrile], for which the IC50 in assay [1] is 3240 nM; in assay [7], 330 nM; in assay [2] (read-out: CDK1/B IC50), greater than 5000 nM; in assay [8] it was greater than 5000 nM; in assay [4], 1870 nM; in assay [5] it was 12 nM. Further, in assay [6], the IC50 was 1.4 nM.
As to `N#Cc1cc2ccc(Nc3ccc4c(c3)CNCC4)nc2n(C2CCCC2)c1=O` [Compound No. 326, 1-cyclopentyl-2-oxo-7-((1,2,3,4-tetrahydroisoquinolin-7-yl)amino)-1,2-dihydro-1,8-naphthyridine-3-carbonitrile], the IC50 is 4240 nM in assay [1]; 3520 nM in assay [7]; greater than 5000 nM in assay [2] (read-out: CDK1/B IC50); greater than 50000 nM in assay [3]; greater than 5000 nM in assay [4]; greater than 200 nM in assay [5]. Besides, in assay [6], the IC50 was greater than 200 nM.
